Reference: US12692254B2, “Benzimidazole inhibitors of PAD enzymes” (BRISTOL-MYERS SQUIBB COMPANY, priority 2018, dated 2026)

Target: human PAD4 (hPAD4) (Homo sapiens, UniProt Q9UM07)
Assay: RFMS human PAD4 functional assay (rapid-fire mass spectrum)
Format: biochemical
Settings: 5 nM hPAD4 enzyme, 250 μM BAEE, 50 μM Calcium; 30 min preincubation, 90 min reaction at 37° C.
Summary of the method: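 PAD4 (10 nM) preincubated 30 min with compound (top final 50 μM), then BAEE substrate added in pH 7.5 HEPES buffer with DTT, 50 μM calcium, TPEN; 90 min at 37° C. After TCA quench, citrulline derivatized with phenyl glyoxal (4 mM final, 30 min, 37° C) and quantified by RapidFire MS against internal standard.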

human PAD4 (hPAD4), sequence (Q9UM07 whole entry): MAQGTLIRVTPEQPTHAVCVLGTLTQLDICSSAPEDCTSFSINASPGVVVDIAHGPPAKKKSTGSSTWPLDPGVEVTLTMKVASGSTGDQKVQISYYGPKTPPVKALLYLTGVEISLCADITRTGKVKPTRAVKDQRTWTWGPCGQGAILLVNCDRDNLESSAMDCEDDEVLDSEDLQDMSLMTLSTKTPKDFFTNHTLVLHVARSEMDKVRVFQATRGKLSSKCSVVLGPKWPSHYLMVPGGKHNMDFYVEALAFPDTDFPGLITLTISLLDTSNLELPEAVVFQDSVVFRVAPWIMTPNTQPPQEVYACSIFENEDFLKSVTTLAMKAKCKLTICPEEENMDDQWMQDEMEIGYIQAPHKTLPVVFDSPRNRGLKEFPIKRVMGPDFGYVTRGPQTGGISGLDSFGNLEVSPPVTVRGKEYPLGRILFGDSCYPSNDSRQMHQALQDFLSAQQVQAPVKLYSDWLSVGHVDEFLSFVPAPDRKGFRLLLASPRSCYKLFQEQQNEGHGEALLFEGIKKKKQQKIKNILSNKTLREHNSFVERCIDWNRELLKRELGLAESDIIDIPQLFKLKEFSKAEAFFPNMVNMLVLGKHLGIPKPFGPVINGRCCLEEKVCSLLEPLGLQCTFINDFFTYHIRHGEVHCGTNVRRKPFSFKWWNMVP

**Q.** How did the IC50 turn out when `COc1cc(C(=O)N2C[C@H](N)C[C@@H](F)C2)cc2nc(-c3cc4ccccc4n3CC3CC3)n(Cc3csc(C)n3)c12` [Example 285, (3R,5R)-1-{2-[1-(cyclopropylmethyl)-1H-indol-2-yl]-7-methoxy-1-[(2-methyl-1,3-thiazol-4-yl)methyl]-1H-1,3-benzodiazote-5-carbonyl}-5-fluoropiperidin-3-amine] was run?
**A.** Its IC50 is 1020 nM.

**Q.** Which IC50 does the source give for `COc1cc(C(=O)N2C[C@H]3CC[C@@H]2[C@@H]3N)cc2nc(-c3cc4cccnc4n3CC3CC3)n(CCNS(C)(=O)=O)c12` [Example 286, N-(2-{5-[(1R,4R,7R)-7-amino-2-azabicyclo[2.2.1]heptane-2-carbonyl]-2-[1-(cyclopropylmethyl)-1H-pyrrolo[2,3-b]pyridin-2-yl]-7-methoxy-1H-1,3-benzodiazol-1-yl}ethyl)methanesulfonamide] here?
**A.** The IC50 was 1190 nM.

**Q.** How did the IC50 turn out when `COc1cc(C(=O)N2C[C@H](N)C[C@@H](F)C2)cc2nc(-c3cc4ccccc4n3CC3CC3)n(Cc3ccncc3)c12` [Example 287, (3R,5R)-1-{2-[1-(cyclopropylmethyl)-1H-indol-2-yl]-7-methoxy-1-[(pyridin-4-yl)methyl]-1H-1,3-benzodiazole-5-carbonyl}-5-fluoropiperidin-3-amine] was run?
**A.** The IC50 was 1230 nM.

**Q.** For `COc1cc(C(=O)N2CC3(CCCNC3)C2)cc2nc(-c3cc4ccccc4n3CC3CC3)n(Cc3cnn(C)c3)c12` [Example 288, 2-{2-[1-(cyclopropylmethyl)-1H-indol-2-yl]-7-methoxy-1-[(1-methyl-1H-pyrazol-4-yl)methyl]-1H-1,3-benzodiazole-5-carbonyl}-2,6-diazaspiro[3.5]nonane], which IC50 is on record?
**A.** The IC50 was 1280 nM.

**Q.** With `COc1cc(C(=O)N2CC3CCC2[C@@H]3N)cc2nc(-c3cc4cccnc4n3CC3CC3)n(CCNC(C)=O)c12` (stereo partly drawn) [Example 289, N-(2-{5-[(1R,4R,7R)-7-amino-2-azabicyclo[2.2.1]heptane-2-carhonyl]-2-[1-(cyclopropylmethyl)-1H-pyrrolo[2,3-b]pyridin-2-yl]-7-methoxy-1H-1,3-benzodiazol-1-yl}ethyl)acetamide] as the compound, how does the IC50 read?
**A.** Its IC50 is 1290 nM.

**Q.** `COc1cc(C(=O)N2CC3CCC2[C@@H]3N)cc2nc(-c3cc4ccccc4n3CC3CC3)n(CC3CCS(=O)(=O)C3)c12` (stereo partly drawn) [Example 290, ((7R)-7-amino-2-azabicyclo[2.2.1]heptan-2-yl)(2-(1-(cyclopropylmethyl)-1H-indol-2-yl)-1-((1,1-dioxidotetrahydrothiophen-3-yl)methyl)-7-methoxy-1H-benzo[d]imidazol-5-yl)methanone] was tested. Which IC50 did it give?
**A.** Its IC50 is 1590 nM.

**Q.** For `COc1cc(C(=O)N2CC(CN)C2)cc2nc(-c3cc4ccccc4n3CC3CC3)n(Cc3cnn(C)c3)c12` [Example 291, (1-{2-[1-(cyclopropylmethyl)-1H-indol-2-yl]-7-methoxy-1-[(1-methyl-1H-pyrazol-4-yl)methyl]-1H-1,3-benzodiazole-5-carbonyl}azetidin-3 yl)methanamine], which IC50 is on record?
**A.** Its IC50 is 1910 nM.

**Q.** How did the IC50 turn out when `COc1cc(C(=O)N2CCC[C@@H](N)C2)cc2nc(-c3cc4cccnc4n3CC3CC3)n(CCNS(C)(=O)=O)c12` [Example 292, N-(2-{5-[(3R)-3-aminopiperidine-1-carbonyl]-2-[1-(cyclopropylmethyl)-1H-pyrrolo[2,3-b]pyridin-2-yl]-7-methoxy-1H-1,3-benzodiazol-1-yl}ethyl)methanesulfonamide] was run?
**A.** The IC50 was 2060 nM.

**Q.** `COc1cc(C(=O)N2C[C@H](N)C[C@@H](F)C2)cc2nc(-c3cc4ccccc4n3CC3CC3)n(Cc3ccccn3)c12` [Example 293, (3R,5R)-1-{2-[1-(cyclopropylmethyl)-1H-indol-2-yl]-7-methoxy-1-[(pyridin-2-yl)methyl]-1H-1,3-benzodiazole-5-carbonyl}-5-fluoropiperidin-3-amine] was tested. Which IC50 did it give?
**A.** The IC50 was 2660 nM.

**Q.** How did the IC50 turn out when `COc1cc(C(=O)N2CC3CCC2[C@@H]3N)cc2nc(-c3cc4cccnc4n3CC3CC3)n([C@H]3C[C@@H](C(N)=O)C3)c12` (stereo partly drawn) [Example 294, (1s,3s)-3-{5-[(1R,4R,7R)-7-amino-2-azabicyclo[2.2.1]heptane-2-carbonyl]-2-[1-(cyclopropylmethyl)-1H-pyrrolo[2,3-b]pyridin-2-yl]-7-methoxy-1H-1,3-benzodiazol-1-yl}cyclobutane-1-carboxamide] was run?
**A.** The IC50 was 456 nM.

**Q.** `COc1cc(C(=O)N2CC3CCC2[C@@H]3N)cc2nc(-c3cc4cccnc4n3CC3CC3)n([C@H]3C[C@@H](N)C3)c12` (stereo partly drawn) [Example 295, (1R,4R,7R)-2-{2-[1-(cyclopropylmethyl)-1H-pyrrolo[2,3-b]pyridin-2-yl]-7-methoxy-1-[(1s,3s)-3-aminocyclobutyl]-1H-1,3-benzodiazole-5-carbonyl}-2-azabicyclo[2.2.1]heptan-7-amine] was tested. Which IC50 did it give?
**A.** The IC50 was 282 nM.

**Q.** With `COC(=O)N[C@H]1C[C@H](n2c(-c3cc4cccnc4n3CC3CC3)nc3cc(C(=O)N4CC5CCC4[C@@H]5N)cc(OC)c32)C1` (stereo partly drawn) [Example 296, methyl N-[(1r,3r)-3-{5-[(1R,4R,7R)-7-amino-2-azabicyclo[2.2.1]heptane-2-carbonyl]-2-[1-(cyclopropylmethyl)-1H-pyrrolo[2,3-b]pyridin-2-yl]-7-methoxy-1H-1,3-benzodiazol-1-yl}cyclobutyl]carbamate] as the compound, how does the IC50 read?
**A.** The IC50 was 582 nM.

**Q.** Which IC50 does the source give for `COc1cc(C(=O)N2CC3CCC2[C@@H]3N)cc2nc(-c3cc4cccnc4n3CC3CC3)n([C@H]3C[C@@H](NS(C)(=O)=O)C3)c12` (stereo partly drawn) [Example 297, N-[(1s,3s)-3-{5-[(1R,4R,7R)-7-amino-2-azabicyclo[2.2.1]heptane-2-carbonyl]-2-[1-(cyclopropylmethyl)-1H-pyrrolo[2,3-b]pyridin-2-yl]-7-methoxy-1H-1,3-benzodiazol-1-yl}cyclobutyl]methanesulfonamide] here?
**A.** Its IC50 is 2100 nM.

**Q.** Which IC50 does the source give for `COc1cc(C(=O)N2CC3CCC2[C@@H]3N)cc2nc(-c3cc4cccnc4n3CC3CC3)n([C@H]3C[C@H](NS(C)(=O)=O)C3)c12` (stereo partly drawn) [Example 298, N-[(1r,3r)-3-{5-[(1R,4R,7R)-7-amino-2-azabicyclo[2.2.1]heptane-2-carbonyl]-2-[1-(cyclopropylmethyl)-1H-pyrrolo[2,3-b]pyridin-2-yl]-7-methoxy-1H-1,3-benzodiazol-1-yl}cyclobutyl]methanesulfonamide] here?
**A.** The IC50 was 331 nM.

**Q.** How did the IC50 turn out when `COc1cc(C(=O)N2CC3CCC2[C@@H]3N)cc2nc(-c3cc4cccnc4n3CC3CC3)n([C@H]3C[C@H](NC(=O)c4cc[nH]c(=O)c4)C3)c12` (stereo partly drawn) [Example 299, 2-oxo-N-[(1r,3r)-3-{5-[(1R,4R,7R)-7-amino-2-azabicyclo[2.2.1]heptane-2-carbonyl]-2-[1-(cyclopropylmethyl)-1H-pyrrolo[2,3-b]pyridin-2-yl]-7-methoxy-1H-1,3-benzodiazol-1-yl}cyclobutyl]-1,2-dihydropyridine-4-carboxamide] was run?
**A.** The IC50 was 603 nM.

**Q.** For `COc1cc(C(=O)N2CCC[C@@H](N)C2)cc2nc(-c3cc4cccnc4n3CC3CC3)n([C@H]3C[C@H](N)C3)c12` [Example 300, (3R)-1-{2-[1-(cyclopropylmethyl)-1H-pyrrolo[2,3-b]pyridin-2-yl]-7-methoxy-1-[(1r,3r)-3-aminocyclobutyl]-1H-1,3-benzodiazole-5-carbonyl}piperidin-3-amine], which IC50 is on record?
**A.** The IC50 was 912 nM.

**Q.** `COC(=O)N[C@H]1C[C@@H](n2c(-c3cc4cccnc4n3CC3CC3)nc3cc(C(=O)N4CC5CCC4[C@@H]5N)cc(OC)c32)C1` (stereo partly drawn) [Example 301, methyl N-[(1s,3s)-3-{5-[(1R,4R,7R)-7-amino-2-azabicyclo[2.2.1]heptane-2-carbonyl]-2-[1-(cyclopropylmethyl)-1H-pyrrolo[2,3-b]pyridin-2-yl]-7-methoxy-1H-1,3-benzodiazol-1-yl}cyclobutyl]carbamate] was tested. Which IC50 did it give?
**A.** Its IC50 is 1000 nM.

**Q.** For `COc1cc(C(=O)N2CC3CCC2[C@@H]3N)cc2nc(-c3cc4cccnc4n3CC3CC3)n([C@H]3C[C@H](NC(C)=O)C3)c12` (stereo partly drawn) [Example 302, N-[(1r,3r)-3-{5-[(1R,4R,7R)-7-amino-2-azabicyclo[2.2.1]heptane-2-carbonyl]-2-[1-(cyclopropylmethyl)-1H-pyrrolo[2,3-b]pyridin-2-yl]-7-methoxy-1H-1,3-benzodiazol-1-yl)cyclobutyl]acetamide], which IC50 is on record?
**A.** Its IC50 is 1210 nM.

**Q.** How did the IC50 turn out when `COc1cc(C(=O)N2CCC[C@@H](N)C2)cc2nc(-c3cc4cccnc4n3CC3CC3)n([C@H]3C[C@@H](N)C3)c12` [Example 303, (3R)-1-{2-[1-(cyclopropylmethyl)-1H-pyrrolo[2,3-b]pyridin-2-yl]-7-methoxy-1-[(1s,3s)-3-aminocyclobutyl]-1H-1,3-benzodiazole-5-carbonyl}piperidin-3-amine] was run?
**A.** The IC50 was 1650 nM.

**Q.** How did the IC50 turn out when `COc1cc(C(=O)N2CC3CCC2[C@@H]3N)cc2nc(-c3cc4cccnc4n3CC3CC3)n([C@H]3C[C@@H](NC(C)=O)C3)c12` (stereo partly drawn) [Example 304, N-[(1s,3s)-3-{5-[(1R,4R,7R)-7-ammo-2-azabicyclo[2.2.1]heptane-2-carbonyl]-2-[1-(cyclopropylmethyl)-1H-pyrrolo[2,3-b]pyridin-2-yl]-7-methoxy-1H-1,3-benzodiazol-1-yl}cyclobutyl]acetamide] was run?
**A.** Its IC50 is 2880 nM.

**Q.** How did the IC50 turn out when `COc1cc(C(=O)N2C[C@H]3CC[C@@H]2[C@@H]3N)cc2nc(-c3cc4cccnc4n3CC3CC3)n(CC3CCNCC3)c12` [Example 305, (1R,4R,7R)-2-{2-[1-(cyclopropylmethyl)-1H-pyrrolo[2,3-b]pyridin-2-yl]-7-methoxy-1-[(piperidin-4-yl)methyl]-1H-1,3-benzodiazole-5-carbonyl)-2-azabicyclo[2.2.1]heptan-7-amine] was run?
**A.** The IC50 was 303 nM.

**Q.** Which IC50 does the source give for `COc1cc(C(=O)N2C[C@H]3CC[C@@H]2[C@@H]3N)cc2nc(-c3cc4cccnc4n3CC3CC3)n(CC3CNC3)c12` [Example 306, (1R,4R,7R)-2-{1-[(azetidin-3-yl)methyl]-2-[1-(cyclopropylmethyl)-1H-pyrrolo[2,3-b]pyridin-2-yl]-7-methoxy-1H-1,3-benzodiazole-5-carbonyl}-2-azabicyclo[2.2.1]heptan-7-amine] here?
**A.** Its IC50 is 243 nM.

**Q.** How did the IC50 turn out when `COc1cc(C(=O)N2C[C@H]3CC[C@@H]2[C@@H]3N)cc2nc(-c3cc4cccnc4n3CC3CC3)n(C3CNC3)c12` [Example 307, (1R,4R,7R)-2-[1-(azetidin-3-yl)-2-[1-(cyclopropylmethyl)-1H-pyrrolo[2,3-b]pyridin-2-yl]-7-methoxy-1H-1,3-benzodiazole-5-carbonyl]-2-azabicyclo[2.2.1]heptan-7-amine] was run?
**A.** The IC50 was 297 nM.
